This is an account of results in ChEMBL document CHEMBL6114980, “Single or double lipid-modified ultra-short antimicrobial peptides for treating infections caused by resistant bacteria” (Eur J Med Chem, 2025).

Data set [1] is described as follows: Acute toxicity in male BALB/c mouse assessed lethal dose administered as ip dose measured for 7 days. The data set is classed as organism-based. The settings on record: in vivo, time 7 day.
Data set [2] in a line: Acute toxicity in male BALB/c mouse assessed infiltration of inflammatory cells at 20 to 30 mg/kg, ip measured after 7 days by H and E staining based analysis. The data set is classed as organism-based. The settings on record: in vivo, 168 h, dose 20-30 mg/kg, time 7 day.
Data set [3] is described as follows: Acute toxicity in male BALB/c mouse assessed appearance of aberrant alveolar morphology at 20 to 30 mg/kg, ip measured after 7 days by H and E staining based analysis. The class given is organism-based. The settings on record: in vivo, 168 h, dose 20-30 mg/kg, time 7 day.
Data set [4] can be described thus: Acute toxicity in male BALB/c mouse assessed infiltration of inflammatory cells in spleen at 20 to 30 mg/kg, ip measured after 7 days by H and E staining based analysis. The class given is organism-based. The settings on record: in vivo, 168 h, dose 20-30 mg/kg, time 7 day.
The nature of data set [5]: Acute toxicity in male BALB/c mouse assessed infiltration of inflammatory cells in kidney at 20 to 30 mg/kg, ip measured after 7 days by H and E staining based analysis. The class given is organism-based. The settings on record: in vivo, 168 h, dose 20-30 mg/kg, time 7 day.
Data set [6] can be described thus: Stability in mouse serum assessed as retention time measured after 1 hr by RP-HPLC analysis. The class given is ADME, cell-free.
Data set [7] in a line: Acute toxicity in male BALB/c mouse assessed appearance of lung congestion at 20 to 30 mg/kg, ip measured after 7 days by H and E staining based analysis. The class given is organism-based. The settings on record: in vivo, 168 h, dose 20-30 mg/kg, time 7 day.
Data set [8] is described as follows: Acute toxicity in male BALB/c mouse assessed effect on lung at 20 to 30 mg/kg, ip measured after 7 days by H and E staining based analysis. The data set is classed as organism-based. The settings on record: in vivo, 168 h, dose 20-30 mg/kg, time 7 day.
The nature of data set [9]: Acute toxicity in male BALB/c mouse assessed appearance of augmented alveolar interstitial space at 20 to 30 mg/kg, ip measured after 7 days by H and E staining based analysis. The data set is classed as organism-based. The settings on record: in vivo, 168 h, dose 20-30 mg/kg, time 7 day.
The nature of data set [10]: Acute toxicity in male BALB/c mouse assessed effect on liver at 20 to 30 mg/kg, ip measured after 7 days by H and E staining based analysis. The data set is classed as organism-based. The settings on record: in vivo, 168 h, dose 20-30 mg/kg, time 7 day.
The nature of data set [11]: Stability in mouse serum assessed as half life measured after 1 hr by HPLC analysis. The data set is classed as ADME, cell-free.

`CC(C)CCCCC(=O)N[C@@H](CCN)C(=O)N[C@H](C(=O)N[C@@H](CCN)C(=O)N[C@H]1CCNC(=O)[C@H]([C@@H](C)O)NC(=O)[C@H](CCN)NC(=O)[C@H](CCN)NC(=O)[C@H](CC(C)C)NC(=O)[C@@H](Cc2ccccc2)NC(=O)[C@H](CCN)NC1=O)[C@@H](C)O.CC[C@H](C)CCCCC(=O)N[C@@H](CCN)C(=O)N[C@H](C(=O)N[C@@H](CCN)C(=O)N[C@H]1CCNC(=O)[C@H]([C@@H](C)O)NC(=O)[C@H](CCN)NC(=O)[C@H](CCN)NC(=O)[C@H](CC(C)C)NC(=O)[C@@H](Cc2ccccc2)NC(=O)[C@H](CCN)NC1=O)[C@@H](C)O`: the LD50 (commonly the dose expected to kill half of the subjects tested) at 168 h in data set [1] worked out at 23.6 mg/kg. Further, the Activity result in [2] was “Toxic”; in data set [3] it was “Toxic”; in [4] it was “Non-toxic”; in data set [5] it was “Non-toxic”; in [7], “Toxic”; in [8] it was “Toxic”. The Activity entry in [9] and in data set [10] was “Toxic” throughout. In addition, in [6], the Retention_time worked out at 13.545 min. In addition, the half-life (commonly the time in which the quantity being followed falls by half) in [11] is 10.5 h.
